The assay addresses T1, GR (Homo sapiens, UniProt P04150).
T1 construct: expressed in transfected cells; host or cells: CHO-K1 (CHO-K1-GR-MMTV-Luc reporter cells)
T1 sequence (P04150 1-777): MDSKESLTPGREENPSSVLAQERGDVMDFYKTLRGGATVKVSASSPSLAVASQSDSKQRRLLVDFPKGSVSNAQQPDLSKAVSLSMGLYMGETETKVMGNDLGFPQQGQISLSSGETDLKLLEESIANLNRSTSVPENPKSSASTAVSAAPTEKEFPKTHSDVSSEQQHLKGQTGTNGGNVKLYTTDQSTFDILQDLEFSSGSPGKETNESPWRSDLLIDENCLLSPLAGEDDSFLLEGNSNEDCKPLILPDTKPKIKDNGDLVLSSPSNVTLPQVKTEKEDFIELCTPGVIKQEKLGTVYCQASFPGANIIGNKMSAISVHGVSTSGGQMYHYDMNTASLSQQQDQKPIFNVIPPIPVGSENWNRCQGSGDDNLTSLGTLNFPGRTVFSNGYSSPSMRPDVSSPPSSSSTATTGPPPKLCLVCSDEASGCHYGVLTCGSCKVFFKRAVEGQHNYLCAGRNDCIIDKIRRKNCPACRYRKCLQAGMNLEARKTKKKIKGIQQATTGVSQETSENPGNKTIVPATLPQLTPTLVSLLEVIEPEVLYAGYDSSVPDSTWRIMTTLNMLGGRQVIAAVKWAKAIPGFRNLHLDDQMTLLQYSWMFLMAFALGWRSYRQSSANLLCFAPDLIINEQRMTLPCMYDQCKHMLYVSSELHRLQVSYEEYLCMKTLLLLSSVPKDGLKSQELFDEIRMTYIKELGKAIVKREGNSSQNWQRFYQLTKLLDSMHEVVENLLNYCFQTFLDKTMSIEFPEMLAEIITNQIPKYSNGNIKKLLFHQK
Kind of assay: In Vitro GR Luciferase Reporter Assay (antagonist assay). The format is cell-based. Particulars: CHO-K1-GR-MMTV-Luc reporter cells, 10 nM Dexamethasone, 18-24 hours. As to the method: Example A: In Vitro GR Luciferase Reporter Assay
Cell Line: CHO-K1-GR-MMTV-Luc reporter cells
Culture Media: DMEM (with phenol red)+10% FBS
Assay Media: DMEM (without phenol red)+10% CSS
Culture CHO-K1-GR-MMTV-Luc reporter cells in T175 flasks in Culture Media at conditions less than 90% confluence.
Using Bravo (Agilent) liquid handler:
200× DMSO 1:3 serial dilutions of control and test compounds in 96-well non-sterile V bottom plate in DMSO, 12 points for each compound were prepared.
Prepared 5× compound serial dilutions: Add 97.5 μL/well of Assay Media into 96-well non-sterile V bottom plate then added 2.5 ul of 200× concentration of compounds and mix well.
Seeded cells for Antagonist Assay: 5200 CHO-K1-GR-MMTV-Luc reporter cells were seeded in Greiner #781080 flat clear bottom 384-well white TC plate in 20 ul of Assay Media containing 12.5 nM Dexamethasone (final concentration=10 nM).
Added compounds: 5 μl of 5× compounds were added to appropriate wells and followed with a quick spin (1000 rpm, 10 sec) to bring media and cells to the bottom of plate. The plates were covered with SealMate film to avoid evaporation and placed in 37° C. incubator for approximately 18-24 hours.
Read plates: Equilibrate appropriate amount of Promega OneGlo luciferase reagent to room temperature. Remove the plates from incubator and add 25 uL of OneGlo reagent/well by Bravo and read the plates on Tecan Spark plate reader within 15 minutes.
The ability of the compounds disclosed herein to inhibit GR activity was quantified and the respective IC50 value was determined. Table 1 provides the cellular IC50 values of compounds disclosed herein.

Some results are limits rather than exact numbers.

The IC50 is the concentration needed to halve the response being measured. Low readings indicate greater potency, high ones weaker potency.

`Cn1cc(S(=O)(=O)N(CCOC(F)(F)F)[C@H]2CCC3=Cc4c(cnn4-c4ccc(F)cc4)C[C@]3(C(=O)c3cc(C(F)(F)F)ccn3)C2)cn1` [Example 60] returned an IC50 of at most 100 nM.
In turn, `Cn1cc(S(=O)(=O)N(C2CC2)[C@H]2CCC3=Cc4c(cnn4-c4ccc(F)nc4)C[C@]3(C(=O)c3ncc(C(C)(C)C)s3)C2)cn1` [Example 61] gave an IC50 of at most 100 nM.
Regarding `C[C@H]([C@H]1CCC2=Cc3c(cnn3-c3ccc(F)cc3)C[C@]2(C(=O)c2cc(F)ccn2)C1)S(=O)(=O)c1cnn(C)c1` [Example 62], the IC50 is at most 100 nM.
In turn, `CC(C)N([C@H]1CCC2=Cc3c(cnn3-c3ccc(F)cc3)C[C@]2(C(=O)c2ncc(C(C)(C)C)s2)C1)S(=O)(=O)c1cnn(C)c1` [Example 63] registered an IC50 of at most 100 nM.
The figure for `CC(C)N([C@H]1CCC2=Cc3c(cnn3-c3ccc(F)cc3)C[C@]2(C(=O)c2cc(C(C)(C)C)ccn2)C1)S(=O)(=O)c1cnn(C)c1` [Example 64] is at most 100 nM; for `Cn1cnc(S(=O)(=O)N(C2CC2)[C@H]2CCC3=Cc4c(cnn4-c4ccc(F)cn4)C[C@]3(C(=O)c3ncc(C(C)(C)C)s3)C2)n1` [Example 65] it is at most 100 nM.
The figure for `CC(C)N([C@H]1CCC2=Cc3c(cnn3-c3ccc(F)nc3)C[C@]2(C(=O)c2cc(F)ccn2)C1)S(=O)(=O)c1ncn(C)n1` [Example 66] is at most 100 nM; for `Cn1ccc(S(=O)(=O)N(C2CC2)[C@H]2CCC3=Cc4c(cnn4-c4ccc(F)cc4)C[C@]3(C(=O)c3cc(Cl)ccn3)C2)c1` [Example 67] it is at most 100 nM; for `CC(C)N([C@H]1CCC2=Cc3c(cnn3-c3ccc(F)nc3)C[C@]2(C(=O)c2cc(F)ccn2)C1)S(=O)(=O)c1cnn(C)c1` [Example 68] it is at most 100 nM.
The figure for `CC(C)N([C@H]1CCC2=Cc3c(cnn3-c3ccc(F)nc3)C[C@]2(C(=O)c2cc(C(F)(F)F)ccn2)C1)S(=O)(=O)c1cnn(C)c1` [Example 69] is at most 100 nM; for `Cn1cnc(S(=O)(=O)N(C2CC(F)(F)C2)[C@H]2CCC3=Cc4c(cnn4-c4ccc(F)nc4)C[C@]3(C(=O)c3cc(F)ccn3)C2)n1` [Example 70] it is at most 100 nM; for `Cn1cc(S(=O)(=O)N(C2CC(F)(F)C2)[C@H]2CCC3=Cc4c(cnn4-c4ccc(F)nc4)C[C@]3(C(=O)c3cc(F)ccn3)C2)cn1` [Example 71] it is at most 100 nM.
Consider `Cn1cc(-n2ncc3c2C=C2CC[C@H](N(C4CC4)S(=O)(=O)c4ccc(F)cc4)C[C@@]2(C(=O)c2cc(C(F)(F)F)ccn2)C3)ccc1=O` [Example 73], for which the IC50 is over 1000 nM.
With `Cn1cc(S(=O)(=O)N(C2CC2)[C@H]2CCC3=Cc4c(cnn4-c4ccc(F)cn4)C[C@]3(C(=O)c3cc(C(F)(F)F)ccn3)C2)cn1` [Example 74], the 50% inhibitory concentration (IC50) was at most 100 nM.
The figure for `Cn1cnc(S(=O)(=O)N(C2CC(F)(F)C2)[C@H]2CCC3=Cc4c(cnn4-c4ccc(F)nc4)C[C@]3(C(=O)c3cc(C(C)(C)C)ccn3)C2)n1` [Example 75] is at most 100 nM; for `Cn1cc(S(=O)(=O)N(C2CC(F)(F)C2)[C@H]2CCC3=Cc4c(cnn4-c4ccc(F)nc4)C[C@]3(C(=O)c3cc(C(C)(C)C)ccn3)C2)cn1` [Example 76] it is at most 100 nM; for `CC([C@H]1CCC2=Cc3c(cnn3-c3ccc(F)cc3)C[C@]2(C(=O)c2cc(F)ccn2)C1)S(=O)(=O)c1ncn(C)n1` (stereo partly drawn) [Example 77] it is at most 100 nM.
In turn, `Cn1cnc(S(=O)(=O)N(CC(F)(F)F)[C@H]2CCC3=Cc4c(cnn4-c4ccc(F)nc4)C[C@]3(C(=O)c3cc(F)ccn3)C2)n1` [Example 78] returned an IC50 of at most 100 nM.
Consider `CC(C)N([C@H]1CCC2=Cc3c(cnn3-c3ccc(F)cc3)C[C@]2(C(=O)c2cc(F)ccn2)C1)S(=O)(=O)c1cnn(C)c1` [Example 79], for which the IC50 was at most 100 nM.
In turn, `Cn1cc(S(=O)(=O)N(C2CC2)[C@H]2CCC3=Cc4c(cnn4-c4ccc(F)cc4)C[C@]3(C(=O)c3cc(F)ccn3)C2)cn1` [Example 80] yielded an IC50 of at most 100 nM.
In the case of `CC(C)N([C@H]1CCC2=Cc3c(cnn3-c3ccc(F)cc3)C[C@]2(C(=O)c2cc(F)ccn2)C1)S(=O)(=O)c1ncn(C)n1` [Example 81] it was at most 100 nM.
With `Cn1cnc(S(=O)(=O)N(CC(F)(F)F)[C@H]2CCC3=Cc4c(cnn4-c4ccc(F)cc4)C[C@]3(C(=O)c3cc(F)ccn3)C2)c1` [Example 82], the IC50 was at most 100 nM.
In the case of `C[C@H]([C@H]1CCC2=Cc3c(cnn3-c3ccc(F)cc3)C[C@]2(C(=O)c2cc(F)ccn2)C1)S(=O)(=O)c1ncn(C)n1` [Example 83] it was at most 100 nM; in that of `CC(C)N([C@H]1CCC2=Cc3c(cnn3-c3ccc(F)nc3)C[C@]2(C(=O)c2cc(F)ccn2)C1)S(=O)(=O)c1ccn(C)n1` [Example 84], at most 100 nM.
In the case of `CC(C)N([C@H]1CCC2=Cc3c(cnn3-c3ccc(F)nc3)C[C@]2(C(=O)c2cc(Cl)ccn2)C1)S(=O)(=O)c1ccn(C)n1` [Example 85] it was at most 100 nM; in that of `C[C@H]([C@H]1CCC2=Cc3c(cnn3-c3ccc(F)cc3)C[C@]2(C(=O)c2cc(Cl)ccn2)C1)S(=O)(=O)c1ncn(C)n1` [Example 86], at most 100 nM; in that of `CC(C)N([C@H]1CCC2=Cc3c(cnn3-c3ccc(F)cc3)C[C@]2(C(=O)c2cc(F)ccn2)C1)S(=O)(=O)c1cn(C)cn1` [Example 87], at most 100 nM.
Turning to `Cn1ccc(S(=O)(=O)C(C)(C)[C@H]2CCC3=Cc4c(cnn4-c4ccc(F)cc4)C[C@]3(C(=O)c3cc(C(F)(F)F)ccn3)C2)n1` [Example 88], the IC50 was at most 100 nM.
The figure for `Cn1ccc(S(=O)(=O)N(C2CC2)[C@H]2CCC3=Cc4c(cnn4-c4ccc(F)nc4)C[C@]3(C(=O)c3cc(F)ccn3)C2)n1` [Example 89] is at most 100 nM; for `Cn1cnc(S(=O)(=O)[C@H]2CCC3=Cc4c(cnn4-c4ccc(F)cc4)C[C@]3(C(=O)c3cc(C(F)F)ccn3)C2)n1` [Example 90] it is at most 100 nM.
In the case of `Cn1cnc(S(=O)(=O)[C@H]2CCC3=Cc4c(cnn4-c4ccc(F)cc4)C[C@]3(C(=O)c3ccc(F)cn3)C2)n1` [Example 91], the IC50 is at most 100 nM.
On to `Cn1cnc(S(=O)(=O)[C@H]2CCC3=Cc4c(cnn4-c4ccc(F)cc4)C[C@]3(C(=O)c3ccc(C(F)F)cn3)C2)n1` [Example 92], for which the IC50 was at most 100 nM.
Turning to `CCn1cnc(S(=O)(=O)[C@H]2CCC3=Cc4c(cnn4-c4ccc(F)cc4)C[C@]3(C(=O)c3ccc(C(F)(F)F)cn3)C2)n1` [Example 93], the IC50 is at most 100 nM.
The figure for `CCN([C@H]1CCC2=Cc3c(cnn3-c3ccc(F)nc3)C[C@]2(C(=O)c2cc(F)ccn2)C1)S(=O)(=O)c1ncn(C)n1` [Example 94] is at most 100 nM.
In turn, `O=C(c1ccc(C2CC2)cn1)[C@]12Cc3cnn(-c4ccc(F)cc4)c3C=C1CC[C@H](S(=O)(=O)c1ncn(CC(F)(F)F)n1)C2` [Example 95] returned an IC50 of at most 100 nM.
The figure for `Cn1cnc(S(=O)(=O)N(C2CC2)[C@H]2CCC3=Cc4c(cnn4-c4ccc(F)cc4)C[C@]3(C(=O)c3cc4c(cn3)OCCO4)C2)n1` [Example 96] is at most 100 nM; for `Cn1cnc(S(=O)(=O)[C@H]2CCC3=Cc4c(cnn4-c4ccc(F)cc4)C[C@]3(C(=O)c3cc4c(cn3)OCCO4)C2)n1` [Example 97] it is at most 100 nM; for `Cn1cc(S(=O)(=O)N[C@H]2CCC3=Cc4c(cnn4-c4ccc(F)cc4)C[C@]3(C(=O)c3cc(F)ccn3)C2)cn1` [Example 98] it is 100 to 1000 nM.
The figure for `O=C(c1cc(F)ccn1)[C@]12Cc3cnn(-c4ccc(F)cc4)c3C=C1CC[C@H](N(C1CC(F)(F)C1)S(=O)(=O)c1cn[nH]c1)C2` [Example 99] is at most 100 nM.

(Values after patent US20220079924A1, “GLUCOCORTICOID RECEPTOR MODULATORS” (ORIC Pharmaceuticals, Inc., priority 2018, published 2022).)
